# Data from patent publication US12492210B2, “Tricyclic compounds and their use” (HUTCHISON MEDIPHARMA LIMITED, priority 2019, dated 2025).
# Legend:
# MAPK1(ERK2) enzyme = molecular target: T1, MAPK1(ERK2) enzyme (Homo sapiens, UniProt P28482); assay: Z-Lyte Kinase Assay of ERK2; format: biochemical; details: read-out: Example 18 IC50
# T1 construct: purchased Invitrogen PV3313
# Outline: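 FRET-based Z-LYTE assay using ERK2 kinase with Ser/Thr3 peptide; compound tested at 0.00046–1 μM final in 2% DMSO. Kinase reaction ran 1 h at 25-30° C, followed by 1 h development. The coumarin/fluorescein emission ratio (445/520 nm) gave % phosphorylation, and IC50 was fitted from inhibition relative to uninhibited control.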
# [1] = tested on: p-RSK (Thr359) in colo205 cells; assay: p-RSK (Thr359) Acumen Assay in Colo205; format: cell-based; details: Homo sapiens, COLO 205, 1 hour compound incubation, read-out: Example 19 IC50
# Outline: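 Colo205 cells (4000/well, seeded overnight in 10% FBS) were exposed 1 hour at 37° C to compound added from a 3–0.001 μM dilution series in 5% DMSO. Cells were then fixed, permeabilised and immunostained for p-RSK Thr359, with PI counterstain. Acumen cytometry gave the percentage of positive cells, normalised to untreated wells and 3 uM GDC0994 wells, for the IC50 fit.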
# T1 sequence (P28482 whole entry): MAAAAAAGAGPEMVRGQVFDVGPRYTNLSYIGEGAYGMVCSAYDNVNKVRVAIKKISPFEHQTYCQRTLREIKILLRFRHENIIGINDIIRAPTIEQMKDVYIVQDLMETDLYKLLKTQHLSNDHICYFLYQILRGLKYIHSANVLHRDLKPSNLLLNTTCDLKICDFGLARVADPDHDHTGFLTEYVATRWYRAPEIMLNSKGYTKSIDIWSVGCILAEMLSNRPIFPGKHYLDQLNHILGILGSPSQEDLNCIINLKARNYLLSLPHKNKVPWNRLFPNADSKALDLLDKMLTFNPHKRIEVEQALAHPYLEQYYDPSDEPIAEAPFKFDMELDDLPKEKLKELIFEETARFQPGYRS
Structure (SMILES),IC50 (MAPK1(ERK2) enzyme),IC50 [1]
Cn1nccc1Nc1cc(-c2cc3n(c2)C[C@H](C(F)F)n2c-3nnc2C(F)(F)n2cc(Cl)cn2)c(Cl)cn1 [Compound 209],5 to 10 nM,≤ 100 nM
Cn1nccc1Nc1cc(-c2cc3n(c2)CCn2c-3nnc2C(F)(F)C(F)F)c(Cl)cn1 [Compound 58],≤ 5 nM,≤ 100 nM
Cc1cnc(Nc2ccnn2C)cc1-c1cc2n(c1)C[C@H](CF)n1c-2nnc1C(F)(F)c1noc2ccccc12 [Compound 197],5 to 10 nM,> 100 nM
Cc1cnc(Nc2ccnn2C)nc1-c1cc2n(c1)CCCn1c(Cc3ccccc3F)nnc1-2 [Compound 6],5 to 10 nM,≤ 100 nM
Cc1cnc(Nc2ccnn2C)cc1-c1cc2n(c1)C[C@H](CF)n1c-2nnc1C(F)(F)c1ccc(F)cc1 [Compound 128],5 to 10 nM,≤ 100 nM
Cc1cnc(Nc2ccnn2C)nc1-c1cc2n(c1)C[C@H](C)n1c-2nnc1C1(C(F)(F)F)CCC1 [Compound 238],≤ 5 nM,> 100 nM
Cn1nccc1Nc1cc(-c2cc3n(c2)C[C@H](CF)n2c-3nnc2C(F)(F)c2ccccn2)c(Cl)cn1 [Compound 141],≤ 5 nM,≤ 100 nM
Cc1cnc(Nc2ccnn2C)nc1-c1cc2n(c1)C[C@@H](C)n1c-2nnc1C1(C(F)(F)F)CCC1 [Compound 239],≤ 5 nM,> 100 nM
Cc1cnc(Nc2ccnn2C)cc1-c1cc2n(c1)C[C@H](C(F)F)n1c-2nnc1C(F)(F)c1ccccc1Cl [Compound 204],> 10 nM,≤ 100 nM
Cn1nccc1Nc1nccc(-c2cc3n(c2)CCCn2c(COc4ccccc4F)nnc2-3)n1 [Compound 37],≤ 5 nM,≤ 100 nM
Cc1cnc(Nc2ccnn2C)nc1-c1cc2n(c1)CCCn1c-2nnc1C1(C(F)(F)F)CCC1 [Compound 12],≤ 5 nM,≤ 100 nM
Cn1nccc1Nc1cc(-c2cc3n(c2)CC(F)(F)Cn2c(Cn4cc(F)cc4C#N)nnc2-3)c(Cl)cn1 [Compound 219],≤ 5 nM,> 100 nM
Cc1cnc(Nc2ccnn2C)cc1-c1cc2n(c1)C[C@H](CF)n1c-2nnc1C(F)(F)C(F)(F)F [Compound 76],≤ 5 nM,> 100 nM
Cc1cnc(Nc2ccnn2C)cc1-c1cc2n(c1)C[C@H](CF)n1c-2nnc1C(F)(F)c1ccccc1 [Compound 86],5 to 10 nM,≤ 100 nM
Cn1nccc1Nc1ncnc(-c2cc3n(c2)C[C@H](CF)n2c-3nnc2C(F)(F)c2ccccc2Cl)n1 [Compound 144],≤ 5 nM,≤ 100 nM
Cc1cnc(Nc2ccnn2C)cc1-c1cc2n(c1)C[C@H](C)n1c-2nnc1C(F)(F)c1ccccc1F [Compound 83],> 10 nM,≤ 100 nM
Cc1cnc(Nc2ccnn2C)nc1-c1cc2n(c1)C[C@H](C)n1c-2nnc1C(F)(F)c1cccc(F)c1 [Compound 89],≤ 5 nM,≤ 100 nM
Cn1nccc1Nc1nccc(-c2cc3c4nnc(COc5ccccc5F)n4ccn3c2)n1 [Compound 2],≤ 5 nM,≤ 100 nM
Cn1nccc1Nc1cc(-c2cc3n(c2)CCCn2c(Cc4c(F)cccc4Cl)nnc2-3)c(Cl)cn1 [Compound 33],> 10 nM,≤ 100 nM
Cc1ncccc1C(F)(F)c1nnc2n1[C@@H](CF)Cn1cc(-c3cc(Nc4ccnn4C)ncc3Cl)cc1-2 [Compound 177],> 10 nM,≤ 100 nM
Cn1nccc1Nc1cc(-c2cc3n(c2)CCCn2c(COC4(C(F)(F)F)CCC4)nnc2-3)c(Cl)cn1 [Compound 34],> 10 nM,> 100 nM
Cn1nccc1Nc1cc(-c2cc3n(c2)CCCn2c(COc4ccccc4F)nnc2-3)c(F)cn1 [Compound 244],5 to 10 nM,≤ 100 nM
Cn1nccc1Nc1ncc(F)c(-c2cc3n(c2)C[C@H](CF)n2c-3nnc2C(F)(F)c2ccccc2F)n1 [Compound 148],5 to 10 nM,≤ 100 nM
Cn1nccc1Nc1cc(-c2cc3n(c2)CCCn2c-3nnc2C(O)c2ccccc2)c(Cl)cn1 (centres unmarked) [Compound 18],5 to 10 nM,> 100 nM
Cn1nccc1Nc1cc(-c2cc3n(c2)CCCn2c-3nnc2C2(C(F)(F)F)CCCC2)c(Cl)cn1 [Compound 31],5 to 10 nM,≤ 100 nM

Structure (SMILES),IC50 (MAPK1(ERK2) enzyme),IC50 [1]
Cn1nccc1Nc1cc(-c2cc3n(c2)CC2(CC2)Cn2c-3nnc2C(F)(F)C(F)F)c(Cl)cn1 [Compound 93],5 to 10 nM,≤ 100 nM
CCCn1nccc1Nc1ncc(C)c(-c2cc3n(c2)C[C@H](C)n2c-3nnc2C(F)(F)c2ccccc2F)n1 [Compound 291],> 10 nM,≤ 100 nM
CC1CCn2c(nnc2C2(C(F)(F)F)CCC2)-c2cc(-c3cc(Nc4ccnn4C)ncc3Cl)cn21 (centres unmarked) [Compound 52],≤ 5 nM,≤ 100 nM
Cc1cnc(Nc2ccnn2C)nc1-c1cc2n(c1)C[C@H](CF)n1c-2nnc1C(F)(F)n1cc(Cl)cn1 [Compound 156],≤ 5 nM,≤ 100 nM
Cn1nccc1Nc1nccc(-c2cn3c(c2F)-c2nnc(COc4ccccc4F)n2CCC3)n1 [Compound 246],≤ 5 nM,≤ 100 nM
Cn1nccc1Nc1cc(-c2cc3n(c2)CCCn2c-3nnc2C2(C(F)(F)F)CCC2)c(C(F)(F)F)cn1 [Compound 271],5 to 10 nM,≤ 100 nM
Cc1cnc(Nc2ccnn2C)cc1-c1cc2n(c1)CCn1c-2nnc1C(F)(F)c1ccccc1F [Compound 68],5 to 10 nM,> 100 nM
Cn1nccc1Nc1cc(-c2cc3n(c2)CCCn2c-3nnc2C2(C(F)(F)F)CCC2)c(C#N)cn1 [Compound 248],5 to 10 nM,> 100 nM
Cc1cnc(Nc2ccnn2C)nc1-c1cn2c(n1)-c1nnc(C(F)(F)c3ccccc3Cl)n1[C@H](C)C2 [Compound 221],≤ 5 nM,≤ 100 nM
Cn1nccc1Nc1cc(-c2cc3n(c2)CCCn2c-3nnc2C(F)(F)c2ccccc2Cl)c(Cl)cn1 [Compound 35],> 10 nM,≤ 100 nM
Cc1cnc(Nc2ccnn2C)cc1-c1cc2n(c1)CC1(CCC1)Cn1c-2nnc1C1(C(F)(F)F)CCC1 [Compound 129],≤ 5 nM,≤ 100 nM
Cc1nonc1C(F)(F)c1nnc2n1[C@@H](CF)Cn1cc(-c3cc(Nc4ccnn4C)ncc3Cl)cc1-2 [Compound 158],5 to 10 nM,≤ 100 nM
Cn1nccc1Nc1cc(-c2cc3n(c2)CCn2c(Cc4ccccc4F)nnc2-3)c(Cl)cn1 [Compound 9],≤ 5 nM,≤ 100 nM
Cc1cnc(Nc2ccnn2C)cc1-c1cc2n(c1)C[C@H](CF)n1c-2nnc1C(F)(F)c1c(F)cccc1F [Compound 185],> 10 nM,≤ 100 nM
Cc1cnc(Nc2ccnn2C)cc1-c1cc2n(c1)CC1(CC1)Cn1c-2nnc1C(F)(F)C(F)(F)F [Compound 84],5 to 10 nM,> 100 nM
Fc1ccccc1OCc1nnc2n1CCCn1cc(-c3cc(NC4CC4)ncc3C(F)(F)F)cc1-2 [Compound 252],> 10 nM,> 100 nM
Cc1cnc(Nc2ccnn2C)cc1-c1cc2n(c1)C[C@H](CF)n1c-2nnc1C(F)(F)c1cccc(F)c1 [Compound 127],5 to 10 nM,≤ 100 nM
Cc1cnc(Nc2ccnn2C)nc1-c1cc2n(c1)CC1(CC1)n1c-2nnc1C1(C(F)(F)F)CCC1 [Compound 250],≤ 5 nM,≤ 100 nM
Cn1nccc1Nc1ncc(Cl)c(-c2cc3c4nnc(CC(F)(F)F)n4ccn3c2)n1 [Compound 212],≤ 5 nM,≤ 100 nM
Cn1nccc1Nc1cc(-c2cc3n(c2)C[C@H](CF)n2c(Cc4c(F)cccc4F)nnc2-3)c(Cl)cn1 [Compound 139],≤ 5 nM,≤ 100 nM
Cn1nccc1Nc1nccc(-c2cn3c(c2F)-c2nnc(C4(C(F)(F)F)CCC4)n2CCC3)n1 [Compound 243],≤ 5 nM,> 100 nM
Cn1nccc1Nc1cc(-c2cc3n(c2)CC(F)(F)Cn2c-3nnc2C2(C(F)(F)F)CCC2)c(Cl)cn1 [Compound 171],> 10 nM,≤ 100 nM
Cn1nccc1Nc1ncc(F)c(-c2cc3n(c2)C[C@H](CF)n2c-3nnc2C(F)(F)n2cc(Cl)cn2)n1 [Compound 166],≤ 5 nM,≤ 100 nM
Cn1nccc1Nc1cc(-c2cc3n(c2)C[C@H](CF)n2c-3nnc2C(F)(F)n2cc(Cl)cn2)c(F)cn1 [Compound 164],≤ 5 nM,≤ 100 nM
